{"source": "patent US10568879B2", "about": "(GALAPAGOS NV, priority 2015, dated 2020)", "key": {"GPR84": {"molecular_target": "T1, GPR84 (Homo sapiens, UniProt Q9NQS5)", "T1 construct": "expressed in transfected cells", "T1 sequence (Q9NQS5 whole entry)": "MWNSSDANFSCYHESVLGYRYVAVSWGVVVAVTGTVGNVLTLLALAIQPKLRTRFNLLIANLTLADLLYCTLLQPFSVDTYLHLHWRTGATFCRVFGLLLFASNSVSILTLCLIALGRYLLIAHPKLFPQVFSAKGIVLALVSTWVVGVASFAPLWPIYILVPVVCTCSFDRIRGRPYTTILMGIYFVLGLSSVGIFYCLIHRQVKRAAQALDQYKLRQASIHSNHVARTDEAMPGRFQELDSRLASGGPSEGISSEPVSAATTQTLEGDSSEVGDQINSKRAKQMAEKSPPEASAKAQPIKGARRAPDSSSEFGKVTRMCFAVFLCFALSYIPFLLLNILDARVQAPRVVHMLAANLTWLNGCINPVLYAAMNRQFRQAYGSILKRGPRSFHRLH", "experiment": "GPR84 [35S]GTPγS binding assay", "format": "biochemical", "conditions": "3,3′-diindolylmethane at EC80; membranes from stable cell line over expressing GPR84", "summary_of_the_method": "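Antagonist-mode [35S]GTPγS binding on membranes from a GPR84-overexpressing stable line (GDP-preincubated), stimulated with 3,3′-diindolylmethane at EC80. Buffer 20 mM Tris pH 7.5, 5 mM MgCl2, 250 mM NaCl, saponin; 0.1 nM [35S]GTPγS, 90 min at room temperature, SPA bead read-out.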"}, "human neutrophils": {"test_system": "human neutrophils", "experiment": "Human neutrophil migration assay", "format": "cell-based", "conditions": "for IC50: Homo sapiens, Neutrophil, embelin at EC80 as chemotactic agent, 1 h at 37° C., read-out: Human neutrophil migration IC50", "description": "The activity of GPR84 agonists and antagonists can therefore be assayed in a human neutrophil migration assay. The human neutrophil migration assay makes use of freshly isolated human neutrophils from buffy coats that are subsequently used in a functional chemotaxis assay setup. […] After 1 h of incubation at 37° C. and 5% CO2, the number of migrated neutrophils in the lower compartment can be quantified by measuring the ATP content using ATPlite™ Luminescence Assay System. A human buffy coat suspension is diluted with an equal volume of ice cold DPBS. 20 mL of the diluted buffy coat suspension is gently mixed with 4 mL of ACD buffer (140 mM citric acid, 200 mM sodium citrate and 220 mM dextrose). Then, 12 mL of a 6% dextran/0.9% NaCl solution (15 g dextran T2000 and 2.25 g NaCl dissolved in 250 mL H2O) is added to the mixture and the samples are inverted gently up to 20 times. The total volume is transferred to a new recipient and incubated at room temperature to allow sedimentation of red blood cells. The yellowish upper fraction is then transferred to a clean centrifugation tube and centrifuged for 12 min at 1300 rpm and 4° C. After centrifugation, the supernatant is discarded and the remaining cell pellet is rapidly resuspended in 12 mL of ice-cold H2O to perform a red blood cell lysis by osmotic burst. After 20 seconds, 4 mL of ice-cold 0.6 M KCl is added to restore salt concentration. Samples are mixed carefully and centrifuged for 6 min at 1300 rpm and 4° C. The supernatant is discarded and the red blood cell lysis procedure is repeated one more time. […] A neutrophil cell suspension of 8.9×10^6 cells per mL is prepared in chemotaxis buffer and 180 μL per well is plated in a 96-well V-bottom plate. 20 μL of test compound solution in chemotaxis buffer is added to the 180 μL cell suspension. The mixture is incubated at room temperature for 30 min with intermediate gentle resuspension of the cells after 15 min. […] After 1 h at 37° C., 5% CO2 in a humidified incubator, the upper plate of the Transwell® system is gently removed. […] After incubation, 270 μL of cell lysate is then transferred onto a white 96-well plate for quantification by a luminescence plate reader. The relative luminescent signal measured is considered linearly related to the number of cells having migrated from the upper compartment into the receiver well."}}}
{"molecule": "COc1cc2c(cc1OC)-c1cc(=O)cc(NCC3CCCO3)n1CC2", "note": "(centres unmarked) [Compound 4, 9,10-Dimethoxy-4-[(tetrahydro-furan-2-ylmethyl)-amino]-6,7-dihydro-pyrido[2,1-a]isoquinolin-2-one]", "values": [{"measurement": "IC50", "setting": "GPR84", "result": "> 1000", "unit": "nM"}, {"measurement": "IC50", "setting": "human neutrophils", "result": "> 1000", "unit": "nM"}]}
{"molecule": "COc1cc2c(cc1OC)-c1c(C)c(=O)cc(NC[C@@H]3COCCO3)n1CC2", "note": "[Compound 6, 4-[[(2R)-1,4-dioxan-2-yl]methylamino]-9,10-dimethoxy-1-methyl-6,7-dihydrobenzo[a]quinolizin-2-one]", "values": [{"measurement": "IC50", "setting": "GPR84", "result": "500 to 1000", "unit": "nM"}, {"measurement": "IC50", "setting": "human neutrophils", "result": "> 1000", "unit": "nM"}]}
{"molecule": "Cc1c2n(c(NCC3CCCO3)cc1=O)CCc1cc(OCC3CC3(F)F)ccc1-2", "note": "(centres unmarked) [Compound 7, 9-(2,2-Difluoro-cyclopropylmethoxy)-1-methyl-4-[(tetrahydro-furan-2-ylmethyl)-amino]-6,7-dihydro-pyrido[2,1-a]isoquinolin-2-one]", "values": [{"measurement": "IC50", "setting": "GPR84", "result": "0.01 to 100", "unit": "nM"}, {"measurement": "IC50", "setting": "human neutrophils", "result": "100 to 500", "unit": "nM"}]}
{"molecule": "Cc1c2n(c(NCC3CCCO3)cc1=O)CCc1cc(OC3CCCO3)ccc1-2", "note": "(centres unmarked) [Compound 9, -Methyl-4-[(tetrahydro-furan-2-ylmethyl)-amino]-9-(tetrahydro-furan-2-yloxy)-6,7-dihydro-pyrido[2,1-a]isoquinolin-2-one]", "values": [{"measurement": "IC50", "setting": "GPR84", "result": "100 to 500", "unit": "nM"}, {"measurement": "IC50", "setting": "human neutrophils", "result": "100 to 500", "unit": "nM"}]}
{"molecule": "Cc1c2n(c(NCC3CCCCO3)cc1=O)CCc1cc(OCC(F)F)ccc1-2", "note": "(centres unmarked) [Compound 13, 9-(2,2-difluoroethoxy)-1-methyl-4-(tetrahydropyran-2-ylmethylamino)-6,7-dihydrobenzo[a]quinolizin-2-one]", "values": [{"measurement": "IC50", "setting": "GPR84", "result": "100 to 500", "unit": "nM"}, {"measurement": "IC50", "setting": "human neutrophils", "result": "100 to 500", "unit": "nM"}]}
{"molecule": "Cc1c2n(c(NCC3CCCCO3)cc1=O)CCc1cc(OCC(F)(F)F)ccc1-2", "note": "(centres unmarked) [Compound 14, 1-methyl-4-(tetrahydropyran-2-ylmethylamino)-9-(2,2,2-trifluoroethoxy)-6,7-dihydrobenzo[a]quinolizin-2-one]", "values": [{"measurement": "IC50", "setting": "GPR84", "result": "0.01 to 100", "unit": "nM"}, {"measurement": "IC50", "setting": "human neutrophils", "result": "0.01 to 100", "unit": "nM"}]}
{"molecule": "Cc1c2n(c(NC[C@@H]3COCCO3)cc1=O)CCc1cc(OCc3ccccc3)ccc1-2", "note": "[Compound 34, 9-benzyloxy-4-[[(2R)-1,4-dioxan-2-yl]methylamino]-1-methyl-6,7-dihydrobenzo[a]quinolizin-2-one]", "values": [{"measurement": "IC50", "setting": "human neutrophils", "result": "0.01 to 100", "unit": "nM"}]}
{"molecule": "Cc1ccc(COc2ccc3c(c2)CCn2c(OC[C@@H]4COCCO4)cc(=O)c(C)c2-3)cn1", "note": "[Compound 52, 4-[[(2S)-1,4-dioxan-2-yl]methoxy]-1-methyl-9-[(6-methyl-3-pyridyl)methoxy]-6,7-dihydrobenzo[a]quinolizin-2-one]", "values": [{"measurement": "IC50", "setting": "human neutrophils", "result": "0.01 to 100", "unit": "nM"}]}
{"molecule": "Cc1c2n(c(OC[C@@H]3COCCO3)cc1=O)CCc1cc(N3CCN(C(=O)OC(C)(C)C)CC3)ccc1-2", "note": "[Compound 60, tert-butyl 4-[4-[[(2S)-1,4-dioxan-2-yl]methoxy]-1-methyl-2-oxo-6,7-dihydrobenzo[a]quinolizin-9-yl]piperazine-1-carboxylate]", "values": [{"measurement": "IC50", "setting": "human neutrophils", "result": "0.01 to 100", "unit": "nM"}]}
{"molecule": "Cc1c2n(c(OC[C@@H]3COCCO3)cc1=O)CCc1cc(C3CN(C(=O)OC(C)(C)C)C3)ccc1-2", "note": "[Compound 71, tert-butyl 3-[4-[[(2S)-1,4-dioxan-2-yl]methoxy]-1-methyl-2-oxo-6,7-dihydrobenzo[a]quinolizin-9-yl]azetidine-1-carboxylate]", "values": [{"measurement": "IC50", "setting": "human neutrophils", "result": "0.01 to 100", "unit": "nM"}]}
{"molecule": "Cc1c2n(c(OC[C@@H]3COCCO3)cc1=O)CCc1cc(OCCOC(F)(F)F)ccc1-2", "note": "[Compound 72, 4-[[(2S)-1,4-dioxan-2-yl]methoxy]-1-methyl-9-[2-(trifluoromethoxy)ethoxy]-6,7-dihydrobenzo[a]quinolizin-2-one]", "values": [{"measurement": "IC50", "setting": "human neutrophils", "result": "0.01 to 100", "unit": "nM"}]}
{"molecule": "Cc1c2n(c(OCC3COCCO3)cc1=O)CCc1cc(OCC(F)(F)F)ccc1-2", "note": "(centres unmarked) [Compound 90, 4-(1,4-dioxan-2-ylmethoxy)-1-methyl-9-(2,2,2-trifluoroethoxy)-6,7-dihydrobenzo[a]quinolizin-2-one]", "values": [{"measurement": "IC50", "setting": "human neutrophils", "result": "0.01 to 100", "unit": "nM"}]}
{"molecule": "CCOC(=O)N1CC(c2ccc3c(c2)CCn2c(OC[C@@H]4COCCO4)cc(=O)c(C)c2-3)C1", "note": "[Compound 147, ethyl 3-[4-[[(2S)-1,4-dioxan-2-yl]methoxy]-1-methyl-2-oxo-6,7-dihydrobenzo[a]quinolizin-9-yl]azetidine-1-carboxylate]", "values": [{"measurement": "IC50", "setting": "GPR84", "result": "0.01 to 100", "unit": "nM"}]}
{"molecule": "Cc1c2n(c(OC[C@@H]3COCCO3)cc1=O)CCc1cc(C3CN(C(=O)N(C)C)C3)ccc1-2", "note": "[Compound 148, 3-[4-[[(2S)-1,4-dioxan-2-yl]methoxy]-1-methyl-2-oxo-6,7-dihydrobenzo[a]quinolizin-9-yl]-N,N-dimethyl-azetidine-1-carboxamide]", "values": [{"measurement": "IC50", "setting": "GPR84", "result": "500 to 1000", "unit": "nM"}]}
{"molecule": "Cc1c2n(c(OC[C@@H]3COCCO3)cc1=O)CCc1cc(C3CN(C(=O)NC(C)C)C3)ccc1-2", "note": "[Compound 149, 3-[4-[[(2S)-1,4-dioxan-2-yl]methoxy]-1-methyl-2-oxo-6,7-dihydrobenzo[a]quinolizin-9-yl]-N-isopropyl-azetidine-1-carboxamide]", "values": [{"measurement": "IC50", "setting": "GPR84", "result": "500 to 1000", "unit": "nM"}]}
{"molecule": "Cc1c2n(c(OC[C@@H]3COCCO3)cc1=O)CCc1cc(OC3CN(C(=O)N(C)C)C3)ccc1-2", "note": "[Compound 150, 3-[[4-[[(2S)-1,4-dioxan-2-yl]methoxy]-1-methyl-2-oxo-6,7-dihydrobenzo[a]quinolizin-9-yl]oxy]-N,N-dimethyl-azetidine-1-carboxamide]", "values": [{"measurement": "IC50", "setting": "GPR84", "result": "500 to 1000", "unit": "nM"}]}
{"molecule": "Cc1c2n(c(OC[C@@H]3COCCO3)cc1=O)CCc1cc(OC3CN(C(=O)NC(C)C)C3)ccc1-2", "note": "[Compound 151]", "values": [{"measurement": "IC50", "setting": "GPR84", "result": "500 to 1000", "unit": "nM"}]}
{"molecule": "Cc1c2n(c(OCC3CC(C)(C)O3)cc1=O)CCc1cc(OCc3ccccc3)ccc1-2", "note": "(centres unmarked) [Compound 152, 9-benzyloxy-4-[(4,4-dimethyloxetan-2-yl)methoxy]-1-methyl-6,7-dihydrobenzo[a]quinolizin-2-one]", "values": [{"measurement": "IC50", "setting": "GPR84", "result": "100 to 500", "unit": "nM"}]}
{"molecule": "Cc1c2n(c(OCC3(C)CCCO3)cc1=O)CCc1cc(OCc3ccccc3)ccc1-2", "note": "(centres unmarked) [Compound 153, 9-benzyloxy-1-methyl-4-[(2-methyltetrahydrofuran-2-yl)methoxy]-6,7-dihydrobenzo[a]quinolizin-2-one]", "values": [{"measurement": "IC50", "setting": "GPR84", "result": "100 to 500", "unit": "nM"}]}
{"molecule": "Cc1c2n(c(OCC3CCC(C)(C)O3)cc1=O)CCc1cc(OCc3ccccc3)ccc1-2", "note": "(centres unmarked) [Compound 154, 9-benzyloxy-4-[(5,5-dimethyltetrahydrofuran-2-yl)methoxy]-1-methyl-6,7-dihydrobenzo[a]quinolizin-2-one]", "values": [{"measurement": "IC50", "setting": "GPR84", "result": "0.01 to 100", "unit": "nM"}]}
{"molecule": "Cc1c2n(c(OC[C@@H]3COCCO3)cc1=O)CCc1cc(OCC(F)(F)C(F)(F)F)ccc1-2", "note": "[Compound 155, 4-[[(2S)-1,4-dioxan-2-yl]methoxy]-1-methyl-9-(2,2,3,3,3-pentafluoropropoxy)-6,7-dihydrobenzo[a]quinolizin-2-one]", "values": [{"measurement": "IC50", "setting": "GPR84", "result": "0.01 to 100", "unit": "nM"}]}
{"molecule": "Cc1c2n(c(OC[C@@H]3COCCO3)cc1=O)CCc1ccccc1-2", "note": "[Compound 156, 4-[[(2S)-1,4-dioxan-2-yl]methoxy]-1-methyl-6,7-dihydrobenzo[a]quinolizin-2-one]", "values": [{"measurement": "IC50", "setting": "GPR84", "result": "100 to 500", "unit": "nM"}]}
{"molecule": "Cc1c2n(c(OC[C@@H]3COCCO3)cc1=O)CCc1cc(N3CCCC3=O)ccc1-2", "note": "[Compound 157, 4-[[(2S)-1,4-dioxan-2-yl]methoxy]-1-methyl-9-(2-oxopyrrolidin-1-yl)-6,7-dihydrobenzo[a]quinolizin-2-one]", "values": [{"measurement": "IC50", "setting": "GPR84", "result": "500 to 1000", "unit": "nM"}]}
{"molecule": "Cc1c2n(c(OC[C@@H]3COCCO3)cc1=O)CCc1cc(OCCF)ccc1-2", "note": "[Compound 159, 4-[[(2S)-1,4-dioxan-2-yl]methoxy]-9-(2-fluoroethoxy)-1-methyl-6,7-dihydrobenzo[a]quinolizin-2-one]", "values": [{"measurement": "IC50", "setting": "GPR84", "result": "0.01 to 100", "unit": "nM"}]}
{"molecule": "CCCCCCCCCC(=O)[O-].[Na+]", "note": "[sodium decanoate, reference compound]", "values": [{"measurement": "neutrophil chemotaxis induced by GPR84 agonists", "setting": "human neutrophils", "result": "induce neutrophil chemotaxis"}]}
{"molecule": "CCCCCCCCCCC(=O)[O-].[Na+]", "note": "[sodium undecanoate, reference compound]", "values": [{"measurement": "neutrophil chemotaxis induced by GPR84 agonists", "setting": "human neutrophils", "result": "induce neutrophil chemotaxis"}]}
